Source: the supplement of paper PMC10627819

Experiments:
S. pneumoniae D39V [1] = assay: fitness (endpoint OD595 vs no drug) (fraction); higher = more growth
Procedure, shortened: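 With the first reading as background, OD595 was measured every 30 min for 14 h in 384-well plates kept at 37 °C and inoculated at OD595 0.01. TSB, LB Lennox or CY was the medium. Fitness is the optical density at the transition into stationary phase divided by the robust mean of no-drug control wells, with a cap of 1.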

S. pneumoniae D39V [2] = assay: Bliss interaction score (quartile over a dose matrix) (fitness difference); higher = more antagonism (negative = synergy)
Procedure, shortened: (§1)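 Fitness here means normalised growth, inferred for single drugs from the combination data. Growth was OD595 at entry into stationary phase, divided by the plate's robust no-drug mean and capped at 1. The Bliss score is observed minus expected fitness, with the expectation being the product, and its quartiles span technical, biological and donor/recipient replicates.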

B. subtilis 168 = assay: as above
Procedure, shortened: as §1

S. aureus DSM 20231 = assay: as above
Procedure, shortened: as §1

S. aureus Newman = assay: as above
Procedure, shortened: as §1
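Throughout, for Bliss interaction score (quartile over a dose matrix): first quartile when negative (synergy) and third quartile when positive (antagonism).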
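Throughout, for fitness (endpoint OD595 vs no drug): OD595 on entry to stationary phase over no-drug wells; at most 1.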

CC[C@H]1OC(=O)[C@H](C)[C@@H](O[C@H]2C[C@@](C)(OC)[C@@H](O)[C@H](C)O2)[C@H](C)[C@@H](O[C@@H]2O[C@H](C)C[C@H](N(C)C)[C@H]2O)[C@](C)(OC)C[C@@H](C)C(=O)[C@H](C)[C@@H](O)[C@]1(C)O [Clarithromycin] + Clc1ccc(COC(Cn2ccnc2)c2ccc(Cl)cc2Cl)c(Cl)c1 [Miconazole]
fitness, S. pneumoniae D39V [1], one replicate
Conditions | first compound 0.007812 µg/mL | first compound 0.01562 µg/mL | first compound 0.03125 µg/mL
partner 1.25 µg/mL | 0.924 | 0.848 | 0.664
partner 2.5 µg/mL | 0.9 | 0.855 | 0.66
partner 5 µg/mL | 0.869 | 0.847 | 0.556

S. pneumoniae D39V [1]
Conditions | fitness
first compound 0.0625 µg/mL, partner 1.073 µg/mL | 0.747
first compound 0.0625 µg/mL, partner 2.145 µg/mL | 0.638
first compound 0.0625 µg/mL, partner 4.29 µg/mL | 0.635
first compound 0.07 µg/mL, partner 1.25 µg/mL | 0.167
first compound 0.07 µg/mL, partner 2.5 µg/mL | 0.185
first compound 0.07 µg/mL, partner 5 µg/mL | 0.107
first compound 0.125 µg/mL, partner 4.29 µg/mL | 0.448
first compound 0.14 µg/mL, partner 1.25 µg/mL | 0.117
first compound 0.14 µg/mL, partner 2.5 µg/mL | 0.151
first compound 0.14 µg/mL, partner 5 µg/mL | 0.0925
first compound 0.25 µg/mL, partner 1.073 µg/mL | 0.0979
first compound 0.25 µg/mL, partner 2.145 µg/mL | 0.0742
first compound 0.25 µg/mL, partner 4.29 µg/mL | 0.218
first compound 0.28 µg/mL, partner 1.25 µg/mL | 0.0568
first compound 0.28 µg/mL, partner 2.5 µg/mL | 0.122
first compound 0.28 µg/mL, partner 5 µg/mL | 0.0835

Conditions | Bliss interaction score
B. subtilis 168 | 0.0897
S. aureus DSM 20231 | 0.0854
S. aureus Newman | 0.0558
S. pneumoniae D39V [2] | 0.0979

CC[C@H]1OC(=O)[C@H](C)[C@@H](O[C@H]2C[C@@](C)(OC)[C@@H](O)[C@H](C)O2)[C@H](C)[C@@H](O[C@@H]2O[C@H](C)C[C@H](N(C)C)[C@H]2O)[C@](C)(OC)C[C@@H](C)C(=O)[C@H](C)[C@@H](O)[C@]1(C)O [Clarithromycin] + Cn1nnc(-c2ccc(-c3ccc(N4C[C@H](CO)OC4=O)cc3F)cn2)n1 [Tedizolid]
fitness, S. pneumoniae D39V [1], one replicate
Conditions | first compound 0.007812 µg/mL | first compound 0.01562 µg/mL | first compound 0.03125 µg/mL
partner 0.125 µg/mL | 0.739 | 0.692 | 0.639
partner 0.25 µg/mL | 0.701 | 0.685 | 0.686
partner 0.5 µg/mL | 0.373 | 0.381 | 0.353

fitness, S. pneumoniae D39V [1]
Conditions | first compound 0.0625 µg/mL | first compound 0.07 µg/mL | first compound 0.125 µg/mL | first compound 0.14 µg/mL | first compound 0.25 µg/mL | first compound 0.28 µg/mL
partner 0.03125 µg/mL | 0.715 | – | 0.544 | – | 0.317 | –
partner 0.0625 µg/mL | 0.727 | – | 0.571 | – | 0.336 | –
partner 0.125 µg/mL | 0.666 | 0.0645 | 0.511 | 0.053 | 0.275 | 0.0588
partner 0.25 µg/mL | – | 0.0475 | – | 0.0527 | – | 0.0319
partner 0.5 µg/mL | – | 0.0477 | – | 0.0537 | – | 0.0347

Conditions | Bliss interaction score
B. subtilis 168 | -0.0452
S. aureus DSM 20231 | -0.109
S. aureus Newman | -0.106
S. pneumoniae D39V [2] | 0.0824

CC[C@H]1OC(=O)[C@H](C)[C@@H](O[C@H]2C[C@@](C)(OC)[C@@H](O)[C@H](C)O2)[C@H](C)[C@@H](O[C@@H]2O[C@H](C)C[C@H](N(C)C)[C@H]2O)[C@](C)(OC)C[C@@H](C)C(=O)[C@H](C)[C@@H](O)[C@]1(C)O [Clarithromycin] + O=C1CN(/N=C/c2ccc([N+](=O)[O-])o2)C(=O)N1 [Nitrofurantoin]
fitness, S. pneumoniae D39V [1], one replicate
Conditions | first compound 0.007812 µg/mL | first compound 0.01562 µg/mL | first compound 0.03125 µg/mL | first compound 0.0625 µg/mL | first compound 0.125 µg/mL | first compound 0.25 µg/mL
partner 2 µg/mL | 0.879 | 0.802 | 0.627 | – | – | –
partner 4 µg/mL | 0.862 | 0.788 | 0.643 | – | – | –
partner 5.14 µg/mL | – | – | – | 0.402 | 0.214 | 0.146
partner 8 µg/mL | 0.744 | 0.678 | 0.556 | – | – | –

fitness, S. pneumoniae D39V [1]
Conditions | first compound 0.0625 µg/mL | first compound 0.07 µg/mL | first compound 0.125 µg/mL | first compound 0.14 µg/mL | first compound 0.25 µg/mL | first compound 0.28 µg/mL
partner 1.285 µg/mL | 0.636 | – | 0.263 | – | 0.104 | –
partner 2 µg/mL | – | 0.0417 | – | 0.0458 | – | 0.0401
partner 2.57 µg/mL | 0.59 | – | 0.199 | – | 0.0984 | –
partner 4 µg/mL | – | 0.0482 | – | 0.0382 | – | 0.0171
partner 8 µg/mL | – | 0.0337 | – | 0.0552 | – | 0.0141

Conditions | Bliss interaction score
B. subtilis 168 | -0.0776
S. aureus DSM 20231 | -0.04
S. aureus Newman | -0.117
S. pneumoniae D39V [2] | -0.0986

CC[C@H]1OC(=O)[C@H](C)[C@@H](O[C@H]2C[C@@](C)(OC)[C@@H](O)[C@H](C)O2)[C@H](C)[C@@H](O[C@@H]2O[C@H](C)C[C@H](N(C)C)[C@H]2O)[C@](C)(OC)C[C@@H](C)C(=O)[C@H](C)[C@@H](O)[C@]1(C)O [Clarithromycin] + O=C(O[C@@H]1Cc2c(O)cc(O)cc2O[C@@H]1c1cc(O)c(O)c(O)c1)c1cc(O)c(O)c(O)c1 [EGCG]
fitness, S. pneumoniae D39V [1], one replicate
Conditions | first compound 0.007812 µg/mL | first compound 0.01562 µg/mL | first compound 0.03125 µg/mL
partner 12.5 µg/mL | 0.808 | 0.8 | 0.635
partner 25 µg/mL | 0.847 | 0.762 | 0.609
partner 50 µg/mL | 0.827 | 0.77 | 0.614

fitness, S. pneumoniae D39V [1]
Conditions | first compound 0.0625 µg/mL | first compound 0.07 µg/mL | first compound 0.125 µg/mL | first compound 0.14 µg/mL | first compound 0.25 µg/mL | first compound 0.28 µg/mL
partner 12.5 µg/mL | 0.457 | 0.123 | 0.241 | 0.0422 | 0.0839 | 0.0515
partner 25 µg/mL | 0.493 | 0.115 | 0.25 | 0.0716 | 0.0874 | 0.0518
partner 50 µg/mL | 0.383 | 0.144 | 0.373 | 0.0769 | 0.122 | 0.0507

Conditions | Bliss interaction score
B. subtilis 168 | 0.0404
S. aureus DSM 20231 | 0.109
S. aureus Newman | 0.132
S. pneumoniae D39V [2] | -0.0473
